Experimental data reported in PMC6222718, “Ethylenediamine Derived Carboxamides of Betulinic and Ursolic Acid as Potential Cytotoxic Agents” (Molecules : A Journal of Synthetic Chemistry and Natural …, 2018).

Experiments:
[1] = test system: HT29 (colon adenocarcinoma); assay: SRB cytotoxicity assay, HT29; assay type: cell-based, human; conditions: for EC50: Homo sapiens, HT-29, SRB assay, 96 h of treatment, HT29; for Selectivity index (SI) HT29: SI = EC50 (NIH 3T3)/EC50 (HT29)
Description: (§1) The cytotoxicity of ursolic and betulinic carboxamides 3–30 was determined in sulforhodamine B (SRB) assays.
(§2) The cell lines used were human cancer cell lines: 518A2 (melanoma), A2780 (ovarian carcinoma), HT29 (colon adenocarcinoma), MCF-7 (breast adenocarcinoma), 8505C (thyroid carcinoma) and non-malignant mouse fibroblasts NIH 3T3. Cultures were maintained as monolayers in RPMI 1640 medium with L-glutamine (Capricorn Scientific GmbH, Ebsdorfergrund, Germany) supplemented with 10% heat inactivated fetal bovineserum (Sigma-Aldrich Chemie GmbH, Steinheim, Germany) and penicillin/streptomycin (Capricorn Scientific GmbH, Ebsdorfergrund, Germany) at 37 °C in a humidified atmosphere with 5% CO2.
(§3) The cytotoxicity of the compounds was evaluated using the sulforhodamine-B (Kiton-Red S, ABCR) micro culture colorimetric assay. Cells were seeded into 96-well plates on day 0 at appropriate cell densities to prevent confluence of the cells during the period of experiment. After 24 h, the cells were treated with 6 different concentrations (1, 3, 7, 12, 20 and 30 µM) minimum. The final concentration of DMSO/DMF never exceeded 0.5%, which was non-toxic to the cells. After a 96 h treatment, the supernatant medium from the 96-well plates was discarded, the cells were fixed with 10% trichloroacetic acid (TCA) and allowed to rest at 4 °C. After 24 h fixation, the cells were washed in a strip washer and dyed with SRB solution (100 µL, 0.4% in 1% acetic acid) for about 20 min. After dying, the plates were washed four times with 1% acetic acid to remove the excess of the dye and allowed to air-dry overnight. Tris base solution (200 µL, 10 mM) was added to each well and absorbance was measured at λ = 570 nm using a 96-well plate reader (Tecan Spectra, Crailsheim, Germany). The EC50 values were averaged from three independent experiments performed each in triplicate calculated from semi logarithmic dose response curves applying a non-linear 4P Hills-slope equation (GraphPad Prism5; variables top and bottom were set to 100 and 0, respectively).

[2] = test system: A2780 (ovarian carcinoma); assay: SRB cytotoxicity assay, A2780; assay type: cell-based, human; conditions: for EC50: Homo sapiens, SRB assay, 96 h of treatment, A2780; for Selectivity index (SI) A2780: SI = EC50 (NIH 3T3)/EC50 (A2780)
Description: as §1, §2, §3

[3] = test system: MCF-7 (breast adenocarcinoma); assay: SRB cytotoxicity assay, MCF-7; assay type: cell-based, human; conditions: for EC50: Homo sapiens, MCF7, SRB assay, 96 h of treatment, MCF-7; for Selectivity index (SI) MCF-7: SI = EC50 (NIH 3T3)/EC50 (MCF-7)
Description: as §1, §2, §3

518A2 (melanoma) = assay: SRB cytotoxicity assay, 518A2; assay type: cell-based, human; conditions: for EC50: Homo sapiens, SRB assay, 96 h of treatment, 518A2; for Selectivity index (SI) 518A2: SI = EC50 (NIH 3T3)/EC50 (518A2)
Description: as §1, §2, §3

[4] = test system: non-malignant mouse fibroblasts NIH 3T3; assay: SRB cytotoxicity assay, NIH 3T3; assay type: cell-based; conditions: NIH3T3, 96 h of treatment
Description: as §1, §2, §3

[5] = test system: 8505C (thyroid carcinoma); assay: SRB cytotoxicity assay, 8505C; assay type: cell-based, human; conditions: for EC50: Homo sapiens, SRB assay, 96 h of treatment, 8505C; for Selectivity index (SI) 8505C: SI = EC50 (NIH 3T3)/EC50 (8505C)
Description: as §1, §2, §3

| Structure (SMILES) | melting point [°C] | EC50 [1] [nM] | Selectivity index (SI) HT29 [1] | EC50 [2] [nM] | Selectivity index (SI) A2780 [2] | EC50 [3] [nM] | Selectivity index (SI) MCF-7 [3] | EC50 (518A2 (melanoma)) [nM] | Selectivity index (SI) 518A2 (518A2 (melanoma)) | EC50 [4] [nM] | EC50 [5] [nM] | Selectivity index (SI) 8505C [5] |
| --- | --- | --- | --- | --- | --- | --- | --- | --- | --- | --- | --- | --- |
| C[C@@H]1CC[C@]2(C(=O)NCCN3CCNCC3)CC[C@]3(C)C(=CCC4[C@@]5(C)CC[C@H](O)C(C)(C)C5CC[C@]43C)C2[C@H]1C (stereo partly drawn) [Compound 14, (3β)-N-(2-Piperazin-1-ylethyl)-3-hydroxy-urs-12-en-28-amide] | 214 to 217 | 2800 ± 400 | 2.36 | 4900 ± 400 | 1.35 | 4400 ± 100 | 1.50 | 7000 ± 400 | 0.94 | 6600 ± 600 | 7800 ± 500 | 0.85 |
| C[C@@H]1CC[C@]2(C(=O)NCCCCN)CC[C@]3(C)C(=CCC4[C@@]5(C)CC[C@H](O)C(C)(C)C5CC[C@]43C)C2[C@H]1C (stereo partly drawn) [Compound 15, (3β)-N-(4-Aminobutyl)-3-hydroxy-urs-12-en-28-amide] | 177 to 180 | 2100 ± 300 | 2.67 | 5400 ± 1400 | 1.04 | 5500 ± 1100 | 1.02 | 9300 ± 100 | 0.60 | 5600 ± 300 | 10800 ± 1200 | 0.52 |
| C[C@@H]1CC[C@]2(C(=O)NCCOCCN)CC[C@]3(C)C(=CCC4[C@@]5(C)CC[C@H](O)C(C)(C)C5CC[C@]43C)C2[C@H]1C (stereo partly drawn) [Compound 16] | 126 to 129 | 3100 ± 300 | 2.42 | 6500 ± 1400 | 1.15 | 6300 ± 600 | 1.19 | 9900 ± 200 | 0.76 | 7500 ± 800 | 10600 ± 1100 | 0.71 |
| C=C(C)C1CC[C@]2(C(=O)NCCN(C)C)CC[C@]3(C)C(CCC4[C@@]5(C)CC[C@H](OC(C)=O)C(C)(C)C5CC[C@]43C)C12 (stereo partly drawn) [Compound 18, (3β)-N-[2-(Dimethylamino)ethyl]-3-acetyloxy-lup-20(29)-en-28-amide] | 108 to 110 | 300 ± 20 | 3.33 | 1100 ± 50 | 0.91 | 1000 ± 300 | 1.00 | 1300 ± 100 | 0.77 | 1000 ± 400 | 1400 ± 150 | 0.71 |
| C=C(C)C1CC[C@]2(C(=O)NCCN3CCCC3)CC[C@]3(C)C(CCC4[C@@]5(C)CC[C@H](OC(C)=O)C(C)(C)C5CC[C@]43C)C12 (stereo partly drawn) [Compound 19, (3β)-N-(2-Pyrrolidin-1-ylethyl)-3-acetyloxy-lup-20(29)-en-28-amide] | 143 to 145 | 500 ± 80 | 2.40 | 1400 ± 90 | 0.86 | 1200 ± 200 | 1.00 | 1500 ± 100 | 0.80 | 1200 ± 70 | 1600 ± 90 | 0.75 |
| C=C(C)C1CC[C@]2(C(=O)NCCN3CCCCC3)CC[C@]3(C)C(CCC4[C@@]5(C)CC[C@H](OC(C)=O)C(C)(C)C5CC[C@]43C)C12 (stereo partly drawn) [Compound 20, (3β)-N-(2-Piperidin-1-ylethyl)-3-acetyloxy-lup-20(29)-en-28-amide] | 124 to 127 | 800 ± 100 | 1.50 | 1600 ± 200 | 0.75 | 1500 ± 500 | 0.80 | 3100 ± 300 | 0.39 | 1200 ± 200 | 3000 ± 360 | 0.40 |
